{"source": "patent US10328093B2", "about": "“Anthracycline formulations” (CYTRX CORPORATION, priority 2012, dated 2019)", "key": {"[1]": {"assay": "pH stability study of DOXO-EMCH in DI Water or pH 4.0 buffer (RP-HPLC)", "assay_type": "physicochemical", "details": "for DOXO-EMCH / Doxorubicin / pH: room temperature", "experimental": "(§1) To analyze DOXO-EMCH's behavior in solution, a reversed-phase (RP) HPLC method for quantitation of DOXO-EMCH and various impurities and degradation products was utilized. Samples (1.0 μL injection volume) were assayed on an HPLC system fitted with a Phenomenex Gemini C18 column 100×2.0 mm, 3 μm at a flow rate of 0.3 mL/min. The mobile phase used was an acetate/acetonitrile gradient. The degradation product EMCH could not be detected using the above HPLC method, and was therefore determined using a liquid chromatography-mass spectrometry (LC-MS) method.\nStudies were performed to examine the effects of pH on DOXO-EMCH stability. In these studies, a criterion of less than 3% doxorubicin over 3-5 hours was set as the goal for stability of DOXO-EMCH. Overall, studies were designed to measure the degradation of DOXO-EMCH at room temperature into doxorubicin and EMCH. Doxorubicin was measured as a percentage of the starting DOXO-EMCH material. Due to solubility issues, the buffer controlled pH portion of the study could not be completed at pH 5.0, 5.5, 6.0 and 7.0. The results below are for DOXO-EMCH dissolved in DI Water at low (2.0 mg/mL) and high (20.0 mg/mL) concentration, and DOXO-EMCH dissolved in pH 4.0 phosphate citrate buffer at low concentration. In summary, none of the conditions met the goal of less than 3% doxorubicin HCl over a 3-5 hour period. […] The DOXO-EMCH dissolved in pH 4.0 phosphate citrate buffer was very unstable, likely as a result of the breakdown of the molecule at pH values below ˜4.5 (Table 6)."}, "[2]": {"assay": "Stability of DOXO-EMCH in DI water with manual pH adjustment (RP-HPLC)", "assay_type": "physicochemical", "details": "for DOXO-EMCH / Doxorubicin: ~2.0 mg/mL in DI Water, manual pH adjustment to pH ~6.1 at 30 minute intervals", "experimental": "as §1\nAn additional study was performed to obtain data on the stability of DOXO-EMCH dissolved in DI water with manual pH adjustment. The initial pH of the DOXO-EMCH solution (˜2.0 mg/mL) dissolved in DI Water was 5.4. At 30 minute intervals, the pH of the DOXO-EMCH solution was checked and adjusted to pH ˜6.1 by the dropwise addition of a 0.1 N NaOH solution."}, "dogs": {"system": "dogs", "details": "acute and repeat-dose; cited from earlier work"}, "[3]": {"details": "~2.0 mg/mL in DI Water, no pH adjustment, 0 hr"}, "[4]": {"details": "~2.0 mg/mL in DI Water, no pH adjustment, 2 hr"}, "[5]": {"details": "~2.0 mg/mL in DI Water, no pH adjustment, 4 hr"}, "[6]": {"details": "~2.0 mg/mL in DI Water, no pH adjustment, 6 hr"}, "[7]": {"details": "~2.0 mg/mL in pH 4.0 phosphate citrate buffer, 0 hr"}, "[8]": {"details": "~2.0 mg/mL in pH 4.0 phosphate citrate buffer, 2 hr"}, "[9]": {"details": "~2.0 mg/mL in pH 4.0 phosphate citrate buffer, 4 hr"}, "[10]": {"details": "~20.0 mg/mL in DI Water, no pH adjustment, 0 hr"}, "[11]": {"details": "~20.0 mg/mL in DI Water, no pH adjustment, 2 hr"}, "[12]": {"details": "~20.0 mg/mL in DI Water, no pH adjustment, 4 hr"}, "[13]": {"details": "~20.0 mg/mL in DI Water, no pH adjustment, 6 hr"}}}
{"smiles": "COc1cccc2c1C(=O)c1c(O)c3c(c(O)c1C2=O)C[C@@](O)(/C(CO)=N/NC(=O)CCCCCN1C(=O)C=CC1=O)C[C@@H]3O[C@H]1C[C@H](N)[C@H](O)[C@H](C)O1.Cl", "note": "[DOXO-EMCH]", "values": [{"measurement": "stability", "setting": "[1]; dissolved in pH 4.0 phosphate citrate buffer", "value": "very unstable"}, {"measurement": "DOXO-EMCH", "setting": "[1]; [3]", "value": 95.8, "unit": "wt %"}, {"measurement": "Doxorubicin", "setting": "[1]; [3]", "value": 0.6, "unit": "wt %"}, {"measurement": "pH", "setting": "[1]; [3]", "value": 6.0}, {"measurement": "DOXO-EMCH", "setting": "[1]; [4]", "value": 82.8, "unit": "wt %"}, {"measurement": "Doxorubicin", "setting": "[1]; [4]", "value": 3.7, "unit": "wt %"}, {"measurement": "pH", "setting": "[1]; [4]", "value": 5.4}, {"measurement": "DOXO-EMCH", "setting": "[1]; [5]", "value": 76.7, "unit": "wt %"}, {"measurement": "Doxorubicin", "setting": "[1]; [5]", "value": 8.9, "unit": "wt %"}, {"measurement": "pH", "setting": "[1]; [5]", "value": 5.1}, {"measurement": "DOXO-EMCH", "setting": "[1]; [6]", "value": 68.6, "unit": "wt %"}, {"measurement": "Doxorubicin", "setting": "[1]; [6]", "value": 14.3, "unit": "wt %"}, {"measurement": "pH", "setting": "[1]; [6]", "value": 5.0}, {"measurement": "DOXO-EMCH", "setting": "[1]; [7]", "value": 65.1, "unit": "wt %"}, {"measurement": "Doxorubicin", "setting": "[1]; [7]", "value": 23.5, "unit": "wt %"}, {"measurement": "pH", "setting": "[1]; [7]", "value": 4.0}, {"measurement": "DOXO-EMCH", "setting": "[1]; [8]", "value": 7.3, "unit": "wt %"}, {"measurement": "Doxorubicin", "setting": "[1]; [8]", "value": 66.1, "unit": "wt %"}, {"measurement": "pH", "setting": "[1]; [8]", "value": 4.0}, {"measurement": "DOXO-EMCH", "setting": "[1]; [9]", "value": 2.9, "unit": "wt %"}, {"measurement": "Doxorubicin", "setting": "[1]; [9]", "value": 68.8, "unit": "wt %"}, {"measurement": "pH", "setting": "[1]; [9]", "value": 4.0}, {"measurement": "DOXO-EMCH", "setting": "[1]; [10]", "value": 86.0, "unit": "wt %"}, {"measurement": "Doxorubicin", "setting": "[1]; [10]", "value": 7.8, "unit": "wt %"}, {"measurement": "pH", "setting": "[1]; [10]", "value": 4.8}, {"measurement": "DOXO-EMCH", "setting": "[1]; [11]", "value": 74.9, "unit": "wt %"}, {"measurement": "Doxorubicin", "setting": "[1]; [11]", "value": 15.6, "unit": "wt %"}, {"measurement": "pH", "setting": "[1]; [11]", "value": 4.6}, {"measurement": "DOXO-EMCH", "setting": "[1]; [12]", "value": 56.7, "unit": "wt %"}, {"measurement": "Doxorubicin", "setting": "[1]; [12]", "value": 24.8, "unit": "wt %"}, {"measurement": "pH", "setting": "[1]; [12]", "value": 4.5}, {"measurement": "DOXO-EMCH", "setting": "[1]; [13]", "value": 45.2, "unit": "wt %"}, {"measurement": "Doxorubicin", "setting": "[1]; [13]", "value": 32.2, "unit": "wt %"}, {"measurement": "pH", "setting": "[1]; [13]", "value": 4.6}, {"measurement": "initial pH of the DOXO-EMCH solution", "setting": "[2]; ~2.0 mg/mL dissolved in DI Water, before adjustment", "value": 5.4}, {"measurement": "DOXO-EMCH", "setting": "[2]; 0 hr", "value": 98.8, "unit": "wt %"}, {"measurement": "Doxorubicin", "setting": "[2]; 0 hr", "value": 0.5, "unit": "wt %"}, {"measurement": "DOXO-EMCH", "setting": "[2]; 2 hr", "value": 91.8, "unit": "wt %"}, {"measurement": "Doxorubicin", "setting": "[2]; 2 hr", "value": 2.4, "unit": "wt %"}, {"measurement": "DOXO-EMCH", "setting": "[2]; 4 hr", "value": 85.6, "unit": "wt %"}, {"measurement": "Doxorubicin", "setting": "[2]; 4 hr", "value": 3.6, "unit": "wt %"}, {"measurement": "DOXO-EMCH", "setting": "[2]; 6 hr", "value": 80.6, "unit": "wt %"}, {"measurement": "Doxorubicin", "setting": "[2]; 6 hr", "value": 4.3, "unit": "wt %"}, {"measurement": "tolerance compared to doxorubicin", "setting": "dogs", "value": "significantly higher tolerance"}]}
